Reference: patent publication US20250283074A1, “CLUSTERIN OVEREXPRESSION IN ALZHEIMER’S DISEASE” (University of Virginia Patent Foundation, priority 2021, published 2025)
Entries after “also recorded” stand apart in the source; their conditions may differ.

Legend:
[1] = system: OPCs; experiment: OPC differentiation into oligodendrocytes, myelin marker expression by qPCR; format: cell-based, mouse; conditions: differentiating conditions, 3 days
Description: FIGS. 13A-13G: Exogenous clusterin inhibits OPC differentiation. Expression of Mbp (FIG. 13A), Plp1 (FIG. 13B), Cnp (FIG. 13C), and Myrf (FIG. 13D), measured by qPCR in OPCs or OLGs treated with vehicle or 8 μg/ml of clusterin for 72 hours (n=7). Representative images (FIG. 13E) and quantification (FIG. 13F) of MBP expression in cells treated with or without 8 μg/ml of clusterin for 72 hours (n=5: Scale bar=50 μm). FIG. 13G. Quantification of OPCs viability following a 72 hours incubation with or without 8 μg/ml clusterin (n=11).
(§1) FIGS. 14A-14D: Clusterin inhibits differentiation by blocking IL-9 production. FIG. 14A. Quantification of cytokines present in the supernatant from OPCs treated with 8 μg/mL clusterin or vehicle control (n=6). Expression of Mbp (FIG. 14B), Plp1 (FIG. 14C), and Myrf (FIG. 14D), measured by qPCR in OPCs cultured in proliferation media (OPC Vehicle), differentiation media supplemented with vehicle (OLG Vehicle), or 8 μg/ml of is clusterin (OLG CLU), or 100 ng/ml IL-9 (OLG IL-9), or 8 μg/ml of clusterin and 100 ng/ml IL-9 (OLG CLU+IL-9) for 72 hours (n=11).
OPCs were prepared from neurospheres as previously described (Franco et al., 2015) and subsequently switched into differentiating conditions in the presence of recombinant clusterin (8 μg/ml) or vehicle (PBS) for 3 days. […]

[2] = system: OPCs; experiment: OPC differentiation, MBP positive oligolineage cells by immunofluorescence; format: cell-based, mouse; conditions: clusterin 8 μg/ml, 72 hours, differentiation media
Description: (§2) FIGS. 6A-6D: Clusterin inhibits OPC differentiation. FIG. 6A is a series of bar graphs showing expression of Mbp, Pip1, Cnp, and Myrf, measured by qPCR in cells cultured in proliferation media (OPC_Veh), differentiation media (OLG_Veh), or differentiation media supplemented with 8 μg/ml of clusterin (OLG_Clu). Data was analyzed using a mixed-effects analysis followed by a Tukey's multiple comparisons test. N=3 individual experiments, n=7 samples per group. FIG. 6B is a series of representative fluorescence micrograph images of cells cultured in differentiation media (Vehicle) or differentiation media supplemented with 8 μg/ml of clusterin (Clusterin). […] FIG. 6C is a bar graph of the quantification of the differentiation efficiency of cells depicted in FIG. 6B. […] Data was is analyzed using a repeated measures t-test. […]
(§3) FIGS. 13A-13G: Exogenous clusterin inhibits OPC differentiation. Expression of Mbp (FIG. 13A), Plp1 (FIG. 13B), Cnp (FIG. 13C), and Myrf (FIG. 13D), measured by qPCR in OPCs or OLGs treated with vehicle or 8 μg/ml of clusterin for 72 hours (n=7). Representative images (FIG. 13E) and quantification (FIG. 13F) of MBP expression in cells treated with or without 8 μg/ml of clusterin for 72 hours (n=5: Scale bar=50 μm). […] Quantification of OPCs viability following a 72 hours incubation with or without 8 μg/ml clusterin (n=11). […]

[3] = system: OPCs; experiment: OPC viability, CCK8 assay; format: cell-based, mouse; conditions: clusterin 8 μg/ml, 72 hours
Description: as §2, §3

[4] = system: IL-9 secretion by OPCs; experiment: Luminex Assay on the supernatant of OPCs (cytokine and growth factor secretion); format: cell-based, mouse; conditions: clusterin 8 μg/mL vs vehicle
Description: as §1
We next investigated what factors might be mediating clusterin's inhibition of OPC differentiation.
To identify whether clusterin can modify the composition of the OPC secretome, an unbiased multiplex analysis on the conditioned media of OPCs treated with vehicle or clusterin for 1-3 days was performed. […] IL-9 is a growth factor for T-cell subsets 64, and IL-9 receptor is expressed by OPCs in vivo. However, production and secretion of IL-9 by OPCs has not been previously reported.

[5] = system: clusterin expression in OPCs; experiment: Clusterin expression in treated primary OPCs by qPCR; format: cell-based, mouse; conditions: for clusterin expression in OPCs by qPCR (FIG. 7): 10 ng/ml TNFα 3 h, 10 μM H2O2 3 h, 3 μM Aβ 2 h, apoptotic cells 1:1 6 h, 100 μg/ml myelin debris 4 h; for clusterin expression in OPCs by qPCR (FIG. 12): 4-hour in vitro treatment: 3 μM Aβ, 100 μg/ml myelin, 10 ng/ml TNFα or IFNγ, 10 μM H2O2; for effect of phagocytosis block on clusterin upregulation by myelin debris or apoptotic cells in OPCs: Cytochalasin D 1 μM with 100 μg/ml myelin debris
Description: FIGS. 7A-7F: Macromolecules and protein aggregates cause OPCs to upregulate clusterin. OPCs treated with 10 ng/ml TNFα for 3 hours (FIG. 7A), 10 μM H2O2 for 3 hours (FIG. 7B), 3 μM […] for 2 hours (FIG. 7C), a 1:1 ratio of apoptotic cells for 6 hours (FIG. 7D), 100 μg/ml myelin debris for 4 hours (FIG. 7E), or 100 μg/ml myelin debris and 1 μM Cytochalasin D for 4 hours (FIG. 7F). Clusterin transcript quantity was measured using qPCR. N=1-2 independent experiments. n=4-8 samples/condition. All data was analyzed using a repeated measures t-test. ns: not significant; CytoD: Cytochalasin D. *p<0.05, **p<0.01.
FIGS. 12A-12I: Phagocytosis of extracellular debris drives clusterin expression in OPCs. FIG. 12A. Representative images of OPCs (PDGFRα in green, Olig2 in red) surrounding Aβ plaques (n=4; Scale bar=20 μm). FIG. 12B. Representative orthogonal view of CypHer-labeled Aβ (white) inside an OPC (PDGFRα in green. Olig2 in red) following injection of Aβ (n=6; Scale bar=10 μm). Representative images (FIG. 12C) and quantification (FIG. 12D) of clusterin expression (red) in the ipsilateral (CypHer-Aβ injected: green) and contralateral (FITC injected; green) hemispheres following injection (n=6 mice: Scale bar=100 μm) FIG. 12E. qPCR analysis of clusterin expression in OPCs following a 4-hour in vitro treatment with 3 μM Aβ and the phagocytosis blocker CytoD (1 μM) or vehicle control (n=24). f, Quantification of clusterin protein in OPCs following 72-hour treatment with 3 μM Aβ or vehicle control (n=10). qPCR analysis of clusterin expression in OPCs following a 4-hour in vitro treatment with 100 μg/ml myelin (FIG. 12G), cytokines (10 ng/ml TNFα or 10 ng/ml IFNγ; FIG. 12H) or 10 μM H2O2 (FIG. 12I) and CytoD (1 μM) or vehicle control (n=4-19).
Oligomeric […] Drives Expression of Clusterin in OPCs Given the impact of clusterin on OPCs differentiation in vitro, and the evidence supporting that myelin is impacted in AD (Roher et al., 2002; Desai et al., 2009; Desai et al., 2010; Zhan et al., 2014), we wanted to understand what factors initiate expression of clusterin in OPCs. We treated primary OPCs with TNFa, H2O2, oligomeric Aβ, myelin debris, and apoptotic cells and monitored expression of clusterin by qPCR. These treatments were selected because of their association with AD pathology (Sengupta et al., 2016; Ahmad et al., 2017; Chang et al., 2017). […] In order to test if phagocytosis was required to mediate the upregulation of clusterin, the same experiment was repeated in the presence of Cytochalasin D to block actin polymerization and prevent engulfment (Axline & Reaven, 1974; Soldati & Schliwa, 2006).
We next investigated whether Aβ treatment increases clusterin expression in OPCs. […] We noted that increase in clusterin expression was not specific to the phagocytic clearance of Aβ oligomers, as we also observed it when OPCs engulfed cellular debris.

[6] = system: clusterin expression in the corpus callosum; experiment: Cuprizone model of demyelination, clusterin immunofluorescence in the corpus callosum; format: in vivo; conditions: 5 weeks cuprizone diet then 1 week normal chow vs naïve mouse
Source text: FIG. 9A is a photomicrograph showing clusterin expression (white) in the corpus callosum of a naïve mouse and a mouse following 5-weeks of cuprizone diet followed by 1-week of normal chow to allow remyelination to begin. FIG. 9B is a bar graph showing quantification of clusterin coverage of the corpus callosum depicted in FIG. 9A. N=1 independent experiment, n=5 mice per group. Data analyzed using an unpaired t-test. ***p<0.001. Error bars represent standard error of the mean.
Based on preliminary data, it is anticipated that genetic and the therapeutic silencing of clusterin ameliorate the pathology observed in the 5×FAD mice. If a difference in the number of oligodendrocytes and myelination is undetected, the 5×FAD are tested with the cuprizone model of demyelination. Diet supplemented with cuprizone (5 weeks at 0.3% w/w) induces extensive demyelination of the medial corpus callosum (Doucette et al., 2010). However, demyelination induced in this manner is reversible, as remyelination occurs following the removal of the drug. […] Sections of the medial corpus callosum (midline region above the for mix and between the lateral ventricles) are stained as proposed herein above to quantify OPCs and oligodendrocytes at the end of cuprizone treatment as well as 0.5, 1, 1.5, and 2 weeks following the removal of cuprizone, as described (see Fernandez-Castaneda et al., 2020).

[7] = system: clusterin; conditions: patients with prostate cancer, Phase 3 clinical trial; cited from earlier work
[8] = system: APP/PS1 model of AD; conditions: cited from earlier work
[9] = system: OPCs (OLIG2+/PDGFRα+); experiment: Tamoxifen-induced YFP labelling of OPCs in PDGFRα-CreER; R26-EYFP reporter mice; format: in vivo, mouse; conditions: 2 tamoxifen injections 3 days apart, counted ten days after the first injection, adult mice
Description: FIG. 1A is a representative image of YFP labeled OPCs (PDGFRα+Olig2+) cells following 2 tamoxifen injections. […] FIG. 1B is a graph of percent of OPCs expressing YFP following 0, 1, 2, or 3 tamoxifen injections. Each injection was given 3 days apart. n=2-3 mice/group.
To investigate the optimal dose of tamoxifen required for the reporter expression, we treated adult mice (6 weeks old) with 1, 2, or 3 tamoxifen injections (each injection was administered 3 days apart) and counted the number of YFP positive OPCs (OLIG2+/PDGFRα+) ten days after the first injection (see FIG. 1B).

clusterin: recombinant clusterin, a secreted chaperone protein, containing an HIS-tag, added exogenously to OPCs
Expression of myelin markers (Mbp, Plp, Cnp, and Myrf) as determined by qPCR ([1]; recombinant clusterin 8 μg/ml vs vehicle (PBS)): decreased; also recorded: striking decrease; also recorded: blocks OPC differentiation | percentage of MBP positive oligolineage cells (immunofluorescence) [2]: decrease; also recorded: fewer MBP-positive oligodendrocytes | OPC viability [3]: did not impact OPC viability; also recorded: not due to OPC death | secretion of growth factors and cytokines by OPCs [4]: altered secretion of multiple proteins | IL-9 secretion by OPCs ([4]; 1-3 days): marked reduction; also recorded: blocked IL-9 release from OPCs

OO [H2O2]
clusterin expression in OPCs by qPCR (FIG. 7) [5]: did not influence clusterin expression | clusterin expression in OPCs by qPCR (FIG. 12) [5]: failed to induce changes in clusterin expression

C=C1[C@@H](C)[C@H]2[C@H](Cc3ccccc3)NC(=O)[C@]23[C@H](OC(C)=O)/C=C/[C@@](C)(O)C(=O)[C@@H](C)C/C=C/[C@H]3[C@@H]1O [Cytochalasin D]
effect of phagocytosis block on Aβ-induced clusterin upregulation in OPCs ([5]; CytoD 1 μM with 3 μM Aβ, 4 hours): prevented Aβ from increasing clusterin production in OPCs | effect of phagocytosis block on clusterin upregulation by myelin debris or apoptotic cells in OPCs ([5]; 4 hours): internalization of the cargo is necessary to mediate the upregulation of clusterin | effect of phagocytosis block on clusterin upregulation by myelin debris or apoptotic cells in OPCs ([5]; 4 hours, listed as CytoD): abrogated

O=C(NN=C1CCCCC1)C(=O)NN=C1CCCCC1 [Cuprizone]
clusterin expression in the corpus callosum [6]: upregulated

TNFα
clusterin expression in OPCs by qPCR (FIG. 7) [5]: did not influence clusterin expression | clusterin expression in OPCs by qPCR (FIG. 12) [5]: failed to induce changes in clusterin expression

Custirsen: ASO targeting clusterin in Phase 3 clinical trial; OGX-011 is 5-CAGCAGCAGAGTCTTCATCAT-3′ (SEQ ID NO: 11) (listed as DNA, chemistry not given here; listed as Homo sapiens)
levels of clusterin in patients [7]: safely and effectively reduce levels of clusterin

IL-9: interleukin 9 cytokine added exogenously (100 ng/ml) to differentiating OPCs
Expression of Mbp, Plp, and Myrf by qPCR in clusterin-treated OPCs supplemented with IL-9 ([1]; IL-9 100 ng/ml plus clusterin 8 μg/ml): prevented clusterin inhibition; also recorded: restored expression of these mature oligodendrocyte genes to a level similar as the untreated control

CN1CCC[C@@H]1CCO[C@](C)(c1ccccc1)c1ccc(Cl)cc1 [Clemastine]
myelin integrity and memory performance [8]: improved both myelin integrity and memory performance

CC/C(=C(\c1ccccc1)c1ccc(OCCN(C)C)cc1)c1ccccc1 [tamoxifen]
percent of OPCs expressing YFP [9]: 95%

B1: IFNγ: cytokine upregulated in Alzheimer's disease, 10 ng/ml (protein, UniProt P01579 24-161, looked up)
Interferon gamma: QDPYVKEAENLKKYFNAGHSDVADNGTLFLGILKNWKEESDRKIMQSQIVSFYFKLFKNFKDDQSIQKSVETIKEDMNVKFFNSNKKKRDDFEKLTNYSVTDLNVQRKAIHELIQVMAELSPAAKTGKRKRSQMLFRG
clusterin expression in OPCs by qPCR (FIG. 12) [5]: failed to induce changes in clusterin expression
